Test results reported in the supplement of paper PMC10307832.

How the values were obtained:
Assay in all cases: relative viability (nuclei count vs DMSO), 5 days (fraction); higher = more cells survive
[1] = compound: Cn1nnc2c(C(N)=O)ncn2c1=O [Temozolomide] + C[C@]1(O)C[C@@H](c2nc(-c3ccc4ccc(-c5ccccc5)nc4c3)c3c(N)nccn32)C1 [Linsitinib] (partner 1 µM)
In short: (§1)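 Lung cancer cell lines were pin-tool dosed in 1536-well plates on the day after seeding, with either a lone drug or a fixed anchor-drug dose plus five library-drug doses (not always all listed) in √10 steps. Nuclei were counted on 4× images after 5 days. Relative viability is the ratio of treated-well to vehicle-well nuclei counts, with each value a median of duplicate plates.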

AZD5582 + Luminespib = compound: C[C@@H](C(=O)N[C@@H](C1CCCCC1)C(=O)N2CCC[C@H]2C(=O)N[C@@H]3[C@@H](CC4=CC=CC=C34)OCC#CC#CCO[C@@H]5CC6=CC=CC=C6[C@@H]5NC(=O)[C@@H]7CCCN7C(=O)[C@H](C8CCCCC8)NC(=O)[C@H](C)NC)NC [AZD5582] + CCNC(=O)c1noc(-c2cc(C(C)C)c(O)cc2O)c1-c1ccc(CN2CCOCC2)cc1 [Luminespib] (partner 0.01 µM)
In short: as §1

AZD5582 + Decitabine = compound: C[C@@H](C(=O)N[C@@H](C1CCCCC1)C(=O)N2CCC[C@H]2C(=O)N[C@@H]3[C@@H](CC4=CC=CC=C34)OCC#CC#CCO[C@@H]5CC6=CC=CC=C6[C@@H]5NC(=O)[C@@H]7CCCN7C(=O)[C@H](C8CCCCC8)NC(=O)[C@H](C)NC)NC [AZD5582] + Nc1ncn([C@H]2C[C@H](O)[C@@H](CO)O2)c(=O)n1 [Decitabine] (partner 2 µM)
In short: as §1

AZD5582 + Phenformin = compound: C[C@@H](C(=O)N[C@@H](C1CCCCC1)C(=O)N2CCC[C@H]2C(=O)N[C@@H]3[C@@H](CC4=CC=CC=C34)OCC#CC#CCO[C@@H]5CC6=CC=CC=C6[C@@H]5NC(=O)[C@@H]7CCCN7C(=O)[C@H](C8CCCCC8)NC(=O)[C@H](C)NC)NC [AZD5582] + N=C(N)NC(=N)NCCc1ccccc1 [Phenformin] (partner 250 µM)
In short: as §1

Row | Cell Line | relative viability ([1]; first compound 0.2 µM) | relative viability ([1]; first compound 0.6325 µM) | relative viability ([1]; first compound 2 µM) | relative viability ([1]; first compound 6.325 µM) | relative viability ([1]; first compound 20 µM) | relative viability (AZD5582 + Luminespib; first compound 0.001581 µM) | relative viability (AZD5582 + Luminespib; first compound 0.005 µM) | relative viability (AZD5582 + Luminespib; first compound 0.01581 µM) | relative viability (AZD5582 + Luminespib; first compound 0.05 µM) | relative viability (AZD5582 + Decitabine; first compound 0.001581 µM) | relative viability (AZD5582 + Decitabine; first compound 0.005 µM) | relative viability (AZD5582 + Decitabine; first compound 0.01581 µM) | relative viability (AZD5582 + Decitabine; first compound 0.05 µM) | relative viability (AZD5582 + Phenformin; first compound 0.001581 µM) | relative viability (AZD5582 + Phenformin; first compound 0.005 µM) | relative viability (AZD5582 + Phenformin; first compound 0.01581 µM) | relative viability (AZD5582 + Phenformin; first compound 0.05 µM)
1 | HOP-62 | 1.05 | 1.01 | 0.895 | 0.832 | 0.866 | 0.837 | 0.85 | 0.987 | 1.07 | 0.213 | 0.209 | 0.247 | 0.213 | 0.515 | 0.676 | 0.666 | 0.711
2 | HCC-15 | 0.976 | 0.905 | 0.928 | 0.858 | 0.888 | 0.264 | 0.323 | 0.278 | 0.301 | 0.534 | 0.559 | 0.602 | 0.418 | 0.391 | 0.437 | 0.31 | 0.402
3 | NCI-H2405 | 0.707 | 0.924 | 1.09 | 0.858 | 0.95 | 0.892 | 0.924 | 0.733 | 1.08 | 0.772 | 0.861 | 0.687 | 0.721 | 0.375 | 0.469 | 0.327 | 0.473
4 | COR-L 105 | 0.919 | 1.01 | 1.03 | 0.797 | 0.7 | 0.619 | 0.728 | 0.837 | 0.862 | 0.666 | 0.724 | 0.632 | 0.723 | 0.503 | 0.651 | 0.392 | 0.496
5 | PC-14 | 0.96 | 0.942 | 0.984 | 0.871 | 0.837 | 0.171 | 0.168 | 0.105 | 0.143 | 0.12 | 0.165 | 0.205 | 0.116 | 0.556 | 0.5 | 0.353 | 0.511
6 | NCI-H1975 | 0.961 | 1.01 | 0.922 | 0.903 | 0.9 | 0.255 | 0.282 | 0.174 | 0.353 | 0.35 | 0.408 | 0.412 | 0.276 | 0.416 | 0.457 | 0.393 | 0.452
7 | LCLC-103H | 1.03 | 1.05 | 1.23 | 1.09 | 1.01 | 0.877 | 0.943 | 0.896 | 0.886 | 0.698 | 0.798 | 0.718 | 0.724 | 0.328 | 0.316 | 0.272 | 0.269
8 | NCI-H661 |  | 0.54 | 0.641 | 0.442 | 0.525 | 0.898 | 0.894 | 0.907 | 0.853 | 0.525 | 0.571 | 0.573 | 0.556 | 0.268 | 0.271 | 0.269 | 0.267
9 | NCI-H460 | 0.959 | 0.801 | 0.79 | 0.727 | 0.877 | 0.0278 | 0.039 | 0.0382 | 0.0351 | 0.424 | 0.491 | 0.466 | 0.577 | 0.485 | 0.524 | 0.487 | 0.611
